Experimental findings from PMC3501507, “A Metal-Based Inhibitor of NEDD8-Activating Enzyme” (PLoS ONE, 2012) are described below.

As usually defined, the IC50 is the concentration that gives 50% inhibition.

The test deals with T1, NEDD8-activating enzyme (NAE) (Homo sapiens, UniProt Q8TBC4).
T1 construct: gene UBA3; recombinant human NAE (APPBP1/UBA3 heterodimer); with APPBP1 (NAE1)
T1 sequence (Q8TBC4 2-463): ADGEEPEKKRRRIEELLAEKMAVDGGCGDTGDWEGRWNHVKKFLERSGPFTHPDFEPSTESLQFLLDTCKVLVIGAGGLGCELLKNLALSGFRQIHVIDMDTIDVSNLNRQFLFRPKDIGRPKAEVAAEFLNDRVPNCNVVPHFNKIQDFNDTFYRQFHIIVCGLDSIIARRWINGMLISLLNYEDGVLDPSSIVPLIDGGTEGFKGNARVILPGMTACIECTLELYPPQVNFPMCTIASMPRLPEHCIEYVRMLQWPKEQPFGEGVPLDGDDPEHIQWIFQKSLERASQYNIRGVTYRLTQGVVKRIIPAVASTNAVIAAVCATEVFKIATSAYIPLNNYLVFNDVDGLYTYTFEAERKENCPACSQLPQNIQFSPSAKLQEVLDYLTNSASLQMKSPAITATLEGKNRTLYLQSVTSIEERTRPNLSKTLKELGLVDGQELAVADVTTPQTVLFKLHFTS
T1 sequence (Q13564 2-534 partner): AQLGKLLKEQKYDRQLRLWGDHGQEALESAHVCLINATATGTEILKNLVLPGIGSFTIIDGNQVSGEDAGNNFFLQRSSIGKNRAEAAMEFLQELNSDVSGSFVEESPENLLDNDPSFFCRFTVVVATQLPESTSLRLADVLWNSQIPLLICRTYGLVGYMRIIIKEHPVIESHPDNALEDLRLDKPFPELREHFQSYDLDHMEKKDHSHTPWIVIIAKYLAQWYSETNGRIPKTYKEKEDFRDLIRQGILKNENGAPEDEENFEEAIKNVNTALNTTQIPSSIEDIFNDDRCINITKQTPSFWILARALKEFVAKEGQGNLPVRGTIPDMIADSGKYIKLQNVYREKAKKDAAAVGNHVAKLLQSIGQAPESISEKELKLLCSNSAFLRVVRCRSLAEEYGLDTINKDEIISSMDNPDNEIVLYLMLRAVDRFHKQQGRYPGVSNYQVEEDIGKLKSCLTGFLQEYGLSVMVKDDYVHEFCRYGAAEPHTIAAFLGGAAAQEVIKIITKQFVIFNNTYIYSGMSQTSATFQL
Put plainly: cell-free Ubc12-NEDD8 conjugation assay, western blot. Type of test: biochemical. Background: A western blot detects proteins with antibodies after separation by electrophoresis.

`c1cc[c]2c(c1)-c1cccc[n+]1[Rh-3]213([c]2ccccc2-c2cccc[n+]21)[n+]1cccc2c4nc5ccccc5nc4c4ccc[n+]3c4c21` [compound 1, [Rh(ppy)2(dppz)]^+] gave a concentration for half-maximal inhibition (IC50) of around 1.5 µM. Under `Cc1cc2nc3c4ccc[n+]5c4c4c(ccc[n+]4[Rh-3]546([c]5ccccc5-c5cccc[n+]54)[c]4ccccc4-c4cccc[n+]46)c3nc2cc1C` [compound 2, complex 2] stands around 6.25 µM. As for `Cc1cc2nc3c4ccc[n+]5c4c4c(ccc[n+]4[Rh-3]546([c]5cc(C=O)ccc5-c5cccc[n+]54)[c]4cc(C=O)ccc4-c4cccc[n+]46)c3nc2cc1C` [compound 3, complex 3], the figure is around 6.25 µM; as for `O=Cc1ccc2[c](c1)[Rh-3]13([c]4cc(C=O)ccc4-c4cccc[n+]41)([n+]1ccccc1-2)[n+]1cccc2c4nc5ccc([N+](=O)[O-])cc5nc4c4ccc[n+]3c4c21` [compound 4, complex 4], around 13 µM.
